According to PMC5915154, “Aloe-emodin as drug candidate for cancer therapy” (Oncotarget, 2018):

Test system: drug-sensitive wild-type cell lines
Assay: Resazurin reduction assay, range over drug-sensitive wild-type cell lines
Format: cell-based
Settings: Homo sapiens
Text: The cell lines used in the present work, their origins and maintenance conditions were previously reported. In brief, drug-sensitive CCRF-CEM and multidrug resistant P-glycoprotein-over-expressing CEM/ADR5000 leukemia cells, MDA-MB-231-pcDNA3 breast cancer cells and their transfectant subline MDA-MB-231-BCRP clone 23, HCT116 (p53^+/+) colon cancer cells and its knockout clone HCT116 (p53^-/-), U87.MG glioblastoma multiform cells and their transfectant subline U87.MGΔEGFR as well as HEK293 human embryonic kidney cells transfected with or without a cDNA for ABCB5 were used. The human peripheral mononuclear cells (PMNC) were isolated from fresh blood samples of a healthy donor by using Histopaque® (Sigma-Aldrich, Taufkirchen, Germany).
Resazurin reduction assay was conducted to test the cytotoxicity of the compounds. This assay is based on the reduction of resazurin to resorufin by viable cells. […] Briefly, aliquots of 0.5×10^4 adherent cells which were allowed to attach overnight and 1×10^4 suspension cells per well were seeded in 96-well-plates with or without the addition of varying concentrations of the test substance to get a total volume of 200 μL/well. After 72 h incubation and addition of resazurin (Sigma-Aldrich) for 4 h, staining was measured by an Infinite M2000 ProTM plate reader (Tecan, Germany) using an excitation wavelength of 544 nm and an emission wavelength of 590 nm. […]

`O=C1c2cccc(O)c2C(=O)c2c(O)cc(CO)cc21` [Aloe-emodin] gave an IC50 (drug-sensitive wild-type cell lines HCT116(p53+/+), U87.MG, MDA-MB-231-pcDNA, HEK293) of 16.5 to 22.3 µM and an IC50 (drug-sensitive wild-type cell lines incl. CCRF-CEM (abstract)) of 9.87 to 22.3 µM.
